Results reported in ChEMBL document CHEMBL1201862, “PubChem BioAssay data set” (2004).
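Compound exposure: 48 hours, 5 concentrations, 96-well plates. Abbreviation: GI50, concentration required for 50% inhibition of growth.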 The source made the active and inactive calls. No stated cut-off is given here; in the data, active = GI50 up to about 1.1 µM and inactive = higher.

Key:
Experiment in all cases: NCI anticancer screen, dose series, 48 h
[1] = tested on: CCRF-CEM
[2] = tested on: COLO 205
[3] = tested on: EKVX
[4] = tested on: MCF7
[5] = tested on: MDA-MB-231
[6] = tested on: Malme-3M
[7] = tested on: NCI-H522
[8] = tested on: PC-3
[9] = tested on: SF-268
[10] = tested on: SF-295
[11] = tested on: SF-539
[12] = tested on: SK-MEL-28
[13] = tested on: SK-MEL-2
[14] = tested on: SK-MEL-5
[15] = tested on: SNB-75
[16] = tested on: U-251
[17] = tested on: UACC-257
[18] = tested on: A498
[19] = tested on: MDA-MB-435
[20] = tested on: MOLT-4

Measured: GI50

CC1CCC(C(C)C)C(OC(=O)NCn2cc(-c3ccccc3)nn2)C1 (configuration not stated)
inactive: [1] > 100 µM | [2] > 100 µM | [3] > 100 µM | [4] > 100 µM | [5] > 100 µM | [6] > 100 µM | [7] > 100 µM | [8] > 100 µM | [9] 58.7 µM | [10] > 100 µM | [11] 48.3 µM | [12] > 100 µM | [13] > 100 µM | [14] > 100 µM | [15] 25.6 µM | [16] > 100 µM | [17] > 100 µM

CC1=NNC(=O)C1C1C=C(c2c[nH]c3ccccc23)OC1=O (configuration not stated)
inactive: [18] > 100 µM | [1] 59.6 µM | [2] > 100 µM | [3] > 100 µM | [5] > 100 µM | [19] > 100 µM | [20] > 100 µM | [6] > 100 µM | [7] > 100 µM | [8] > 100 µM | [9] > 100 µM | [10] > 100 µM | [11] > 100 µM | [12] > 100 µM | [13] > 100 µM | [14] > 100 µM | [15] > 100 µM | [16] > 100 µM | [17] > 100 µM

O=C1/C(=C/c2ccccc2)CN(C(=O)OCC(Cl)(Cl)Cl)C/C1=C\c1ccccc1
inactive: [18] 2 µM | [1] 1.71 µM | [2] 3.73 µM | [3] > 10 µM | [20] 2.51 µM | [6] 3.2 µM | [7] 3.47 µM | [9] 3.81 µM | [10] 1.83 µM | [11] 4.29 µM | [12] 1.66 µM | [13] 4.89 µM | [14] 1.55 µM | [15] 3.86 µM | [16] 1.68 µM | [17] 2.09 µM

CCOC(=O)c1cn2c([nH]c3ccccc32)c(C#N)c1=O
inactive: [18] > 100 µM | [1] 52.4 µM | [2] 41.6 µM | [3] > 100 µM | [20] > 100 µM | [6] > 100 µM | [7] > 100 µM | [9] > 100 µM | [10] > 100 µM | [11] > 100 µM | [12] > 100 µM | [13] > 100 µM | [14] > 100 µM | [15] > 100 µM | [16] > 100 µM | [17] > 100 µM

COc1nc(O)nc2c1C(c1ccc([N+](=O)[O-])cc1)c1c(OC)nc(O)nc1O2
inactive: [18] > 100 µM | [1] > 100 µM | [2] > 100 µM | [3] > 100 µM | [5] > 100 µM | [19] > 100 µM | [20] > 100 µM | [7] > 100 µM | [8] > 100 µM | [9] > 100 µM | [10] > 100 µM | [12] > 100 µM | [13] > 100 µM | [14] > 100 µM | [16] > 100 µM | [17] > 100 µM

CCCN1CN(C(C(=O)N[C@@H]2C(=O)N3C2SC(C)(C)C3C(=O)O)c2ccc(O)cc2)CSC1=S (some centres not stated)
inactive: [18] > 100 µM | [1] > 100 µM | [2] 29.8 µM | [3] > 100 µM | [20] > 100 µM | [6] > 100 µM | [7] 22.6 µM | [9] > 100 µM | [10] > 100 µM | [11] > 100 µM | [12] > 100 µM | [13] > 100 µM | [14] > 100 µM | [15] > 100 µM | [16] > 100 µM | [17] > 100 µM

O=C1C2Nc3ccccc3SC2C(=O)N1c1cccc([N+](=O)[O-])c1 (configuration not stated)
inactive: [18] > 100 µM | [1] 86.7 µM | [2] > 100 µM | [3] > 100 µM | [20] 51.8 µM | [6] > 79.6 µM | [7] 57.3 µM | [9] > 100 µM | [10] > 74.5 µM | [11] > 100 µM | [12] > 100 µM | [13] > 75.7 µM | [14] > 100 µM | [15] > 100 µM | [16] > 100 µM | [17] > 100 µM

O=CNNC(=O)Nc1cccc2ccccc12
inactive: [1] > 100 µM | [2] > 100 µM | [3] > 100 µM | [4] > 100 µM | [5] > 100 µM | [19] > 100 µM | [20] > 100 µM | [6] > 100 µM | [9] > 100 µM | [10] > 100 µM | [11] > 100 µM | [12] > 100 µM | [14] > 100 µM | [15] > 100 µM | [16] > 100 µM | [17] > 100 µM
